Consider four compounds from US12479831B2, “Substituted N(-methyl-D3)pyridazine-3-carboxamide or M-(methyl-D3)-nicotinamide compounds as IL-12, IL-23 and/or IFNα modulators” (BRISTOL-MYERS SQUIBB COMPANY, priority 2020, dated 2025).

pIC50: −log10 of the molar value.

This test relates to IFNα-Induced STAT Phosphorylation in Human Whole Blood. Briefly: IFNα-Induced STAT Phosphorylation in Human Whole Blood. Type of test: cell-based. The conditions noted are these: 1 h incubation with compound, 1000 U/mL recombinant human IFNα A/D for 15 min, pSTAT5 (pY694) median fluorescence intensity in CD3 positive population, read-out: hWB IC50.
Usually pIC50 stands for −log10 of the IC50, conventionally taken in molar units. With `[2H]C([2H])([2H])NC(=O)c1nnc(NC(=O)C2CC2)cc1Nc1cccc(-c2ncc(F)cc2C#N)c1OC` [Example 114], the pIC50 was 6.62. Under `[2H]C([2H])([2H])NC(=O)c1cnc(NC(=O)C2CC2)cc1Nc1cccc(-c2ncc(F)cc2C#N)c1OC` [Example 115] stands 6.17; under `[2H]C([2H])([2H])NC(=O)c1nnc(NC(=O)C2CC2)cc1Nc1cccc(-c2ncc(N3CCN(C)C3=O)cn2)c1OC` [Example 116], 7.14. For `[2H]C([2H])([2H])NC(=O)c1nnc(NC(=O)C2CC2)cc1Nc1cccc(-c2ncc(N3CCOCC3=O)cn2)c1OC` [Example 117], the pIC50 was 6.95.
